# Test results published in patent US20050054722A1, “Inhibition of two-component signal transduction systems” (Unisearch Limited,, priority 1999, published 2005).
# What was measured:
# [1] = system: Bacillus subtilis strain ATCC 6633 and NCTC 10073; assay: Growth curves, Bacillus subtilis; format: cell-based; conditions: compound added at 8-9 hours of growth, FIG. 1
# Experimental: The compound was added at 8-9 hours, as denoted by the arrows, after the cultures had been growing. B. subtilis has a two component system that, when deleted, results in lysis and cell death.
# (§1) Growth curve method. Bacteria are grown overnight in standard medium. The following morning, the cells were inoculated into fresh medium at 1% (a 1 in 100 dilution). Furanones were added either at the beginning of growth (time 0) or, as was the case for the B. subtilis experiments, the results of which are shown in FIG. 1, during the mid-logarithmic phase of growth. Growth was then monitored regularly by spectrophotometric readings, at a wavelength of 610 nm.
# Staphylococcus aureus = assay: Minimum inhibitory (growth) concentration, S. aureus; format: cell-based; conditions: growth curves, OD 610 nm
# Experimental: as §1, with “nm. Using the type of growth described above, the minimum growth inhibitory concentration of furanones was determined for S. aureus and Streptococcus spp. were determined for a range of compounds.” for “nm.”
# [2] = system: CopS/CopR two component signal transduction system; assay: CopS/CopR assay (cop'-lacZ, Cu2+-induced); format: cell-based, Pseudomonas syringae pv. syringae; conditions: for cop'-lacZ expression: 0.075 mM CuSO4, 6.5 hours
# Experimental: P. syringae pv syringae PS61 (pCOP38)(pPT23D) was grown on SWM media (Kinscherf and Willis, 1999) at room temperature with shaking for 48 hours. Five μg/ml streptomycin, 15 μg/ml chloramphenicol and 1.0 mM CuSO4 were added to maintain plasmids. This culture was used to inoculate 50 ml SWM media in side-arm flasks with the addition of antibiotics. These cultures were incubated at room temperature with shaking for 16 hours (OD610=0.2) at which point CuSO4 was added to a concentration of 0.075 mM (CuSO4 solution made up in MQ water).
# The test compound or mixtures of compounds were dissolved in ethanol and added to cultures to give the required final concentrations. Equal volumes of ethanol were added to Cu^2+ negative and positive cultures. Cultures were incubated for 6.5 hours at room temperature with shaking before being placed on ice. Samples were then removed for β-galactosidase assays. β-galactosidase assays were carried out in the same manner as those for the Taz assay described above.
# The effect of furanone compound 3 on the CopS/CopR two component signal transduction system that regulates copper resistance in Pseudomonas syringae pv. syringae (Mills et al., 1993) was assessed. […] However, there appears to be no difference in terms of lacZ expression between the two concentrations (p>0.15).
# [3] = system: P. syringae var tomato BB27 swarming (GacS/GacA); assay: GacS/GacA assay (swarming on 0.4% agar SWM plates); format: cell-based, Pseudomonas syringae var. tomato
# Experimental: P. syringae var tomato BB27 was grown overnight in SWM media at room temperature. This culture was used to stab inoculate SWM plates made up with 0.4% agar and incubated at room temperature (20° C.). The culture was also used to stab inoculate sets of SWM plates (0.4% agar) that bad been made up with 25 μg/ml and 50 μg/ml of the test compound (stock solutions made up in ethanol). These plates were also incubated at room temperature for 36 hours before being examined for swarming activity and photographed. Before use all 0.4% agar SWM plates were allowed to air-dry for two hours in a laminar flow cabinet at room temperature.
# Furanones interfere with the “swarming” response of Pseudomonas syringae, which is regulated by the GacS/GacA two-component signal transduction system (Kinscherf and Willis, 1999).
# Streptococcus spp. = assay: Minimum inhibitory (growth) concentration, Streptococcus spp.; format: cell-based; conditions: growth curves, OD 610 nm
# Experimental: as §1, with “nm. Using the type of growth described above, the minimum growth inhibitory concentration of furanones was determined for S. aureus and Streptococcus spp. were determined for a range of compounds.” for “nm.”
# Streptococcus pneumoniae = conditions: cited from earlier work
# HPK NRII = HPK NRII (Escherichia coli, UniProt P0AFB5); conditions: Hilliard et al. 1999; cited from earlier work
# Chain of HPK NRII (P0AFB5 whole entry): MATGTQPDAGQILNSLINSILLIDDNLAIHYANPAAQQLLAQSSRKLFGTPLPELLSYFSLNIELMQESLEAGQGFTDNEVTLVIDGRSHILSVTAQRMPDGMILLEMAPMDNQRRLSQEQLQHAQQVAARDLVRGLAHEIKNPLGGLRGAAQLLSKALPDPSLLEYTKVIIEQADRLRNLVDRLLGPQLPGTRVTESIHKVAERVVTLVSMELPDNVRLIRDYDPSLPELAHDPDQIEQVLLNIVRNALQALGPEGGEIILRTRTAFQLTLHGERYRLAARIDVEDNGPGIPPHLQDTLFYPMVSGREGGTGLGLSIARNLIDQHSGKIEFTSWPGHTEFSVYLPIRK
# E. faecium = conditions: cited from earlier work
# S. aureus = conditions: cited from earlier work
# S. aureus cells = conditions: cited from earlier work
smiles,measurement,setting,value
CCCCC1=C(Br)/C(=C/Br)OC1=O [Compound 2],growth response (optical density),[1],induction of cell lysis
same,"Minimum inhibitory (growth) concentration, Staphylococcus aureus",Staphylococcus aureus,1 to 10 µg/mL
CCC[C@@H](OC(C)=O)C1=C(Br)/C(=C/Br)OC1=O [Compound 3],cop'-lacZ expression,[2]; 25 μg/ml,significantly reduced
same,cop'-lacZ expression,[2]; 50 μg/ml,significantly reduced
same,growth inhibitory effects,"[2]; at the concentrations used (25 and 50 μg/ml), P. syringae pv syringae",did not have any growth inhibitory effects
same,swarming pattern,"[3]; 25 μg/ml, 36 hours",dramatically alters the swarming pattern
same,growth of P. syringae var. tomato,[3]; 50 μg/ml,did not inhibit the growth
same,swarming,"[3]; 50 μg/ml, 36 hours",shut down swarming
CCC[C@@H](O)C1=C(Br)/C(=C/Br)OC1=O [Compound 4],normal activity of the CopS/CopR two-component signal transduction system,[2]; concentration not given,appeared to reduce the normal activity
same,"Minimum inhibitory (growth) concentration, Streptococcus spp.",Streptococcus spp.,10 µg/mL
O=C1C=C(Br)/C(=C/Br)O1 [Compound 30],"Minimum inhibitory (growth) concentration, Staphylococcus aureus",Staphylococcus aureus,1 to 20 µg/mL
same,"Minimum inhibitory (growth) concentration, Streptococcus spp.",Streptococcus spp.,10 µg/mL
same,swarming response in P. syringae,[3]; concentration not given,inhibited the swarming response
CCCCCC(Br)C1=C(Br)/C(=C/Br)OC1=O (centres unmarked) [Compound 33],"Minimum inhibitory (growth) concentration, Staphylococcus aureus",Staphylococcus aureus,0.5 µg/mL
CCCCCC(Br)C1=CC(=C(Br)Br)OC1=O (centres unmarked) [Compound 34],"Minimum inhibitory (growth) concentration, Staphylococcus aureus",Staphylococcus aureus,0.25 µg/mL
NC(N)=NCCc1ccc(OCCC(c2ccccc2)(c2ccccc2)c2ccccc2)cc1 [RWJ-49815],active concentration (antibacterial),Streptococcus pneumoniae,1 to 2 µg/mL
same,autophosphorylation of the HPK NRII,HPK NRII,inhibited the autophosphorylation
same,active concentration (antibacterial),E. faecium,1 to 2 µg/mL
same,active concentration (antibacterial),S. aureus,1 to 2 µg/mL
same,permeability of the membranes of S. aureus cells,S. aureus cells,caused a rapid increase in the permeability
